Consider four molecules from patent US20230135317A1, “COSMETIC FORMULATION FOR TOPICAL ADMINISTRATION COMPRISING NOVEL PEPTIDES THAT IMPROVE APPEARANCE AND REGENERATION OF SKIN” (ASC REGENITY LTD., priority 2020, published 2023).

No end group written: not given here.

The subject of one experiment is facial skin. Briefly: Nine-month long-term study 2 (stem cell homeostasis module peptides). The class given is in vivo, human. The settings on record: nine months; peptide tested with the other modules of TFC8-D; carrier in SEQ ID NO: 3 and 4 is PEG 35 kDa; sequence difference p-value <5%.
The conditions of experiment [1]: clinical phase III (Gunter & MacHens, 2012); cited from earlier work.

Consider “(Z1)-LNPSECPKTVLGAEYGKTLDASYSTAEAENHVRL (not fully specified (N-terminus); printed as (Z1)-LNPSECPKTVLGAEYGKTLDASYSTAEAENHVRL) [SEQ ID NO: 3, Z1 carrier at N-terminus; as tested a polyethyleneglycol with a molecular weight of 35 kDa]”, for which the “frequency of reported product performance decline (comparison)” value (shortened to “frequency”) in the experiment on facial skin is “lower for SEQ ID NO: 3 than for SEQ ID NO: 1”. For the molecule “LNPSECPKTVLGASTSTLDASYSTAEAENHVRL (peptide that stimulates the Wnt beta-catenin signaling pathway) [SEQ ID NO: 2, peptide that stimulates Wnt/β-catenin signalling]”, in the experiment with facial skin, the “frequency” value is reported as “more strongly associated with a decline in product performance during the study period than the sequence of SEQ ID NO: 1”. Turning to “Z1-LNPSECPKTVLGASTSTLDASYSTAEAENHVRL (not fully specified (N-terminus); printed as Z1-LNPSECPKTVLGASTSTLDASYSTAEAENHVRL) [SEQ ID NO: 4, Z1 carrier at N-terminus; as tested a polyethyleneglycol with a molecular weight of 35 kDa]”, the “frequency” value in the experiment on facial skin is “lower for SEQ ID NO: 4 than for SEQ ID NO: 2”.

B1: Juvista: TGF beta 3 drug (protein, UniProt P10600 301-412, looked up)
Transforming growth factor …: ALDTNYCFRNLEENCCVRPLYIDFRQDLGWKWVHEPKGYYANFCSGPCPYLRSADTTHSTVLGLYNTLNPEASASPCCVPQDLEPLTILYYVGRTPKVEQLSNMVVKSCKCS
modifications: Transforming growth factor beta-3
notes: TGF beta 3 drug
With B1, in experiment [1], the clinical outcome is “failure of a clinical phase III study”.
